Assay results reported in ChEMBL document CHEMBL2176881, “Development of N-[4-[6-(isopropylamino)pyrimidin-4-yl]-1,3-thiazol-2-yl]-N-methyl-4-[11C]methylbenzamide for positron emission tomography imaging of metabotropic glutamate 1 receptor in monkey brain” (J Med Chem, 2012).

Legend:
Pancreas = test: Biodistribution in ddY mouse pancreas at 4.8 MBq/0.1 mL after 60 mins by gamma countingeas; format: ADME, organism-based; conditions: in vivo, 1 h
Mus musculus [1] = species on record: Mus musculus; test: Biodistribution in ddY mouse testis at 4.8 MBq/0.1 mL after 15 mins by gamma counting; format: ADME, organism-based; conditions: in vivo, 0.25 h
Brain = test: Biodistribution in ddY mouse brain at 4.8 MBq/0.1 mL after 1 min by gamma counting; format: ADME, organism-based; conditions: in vivo
Mus musculus [2] = species on record: Mus musculus; test: Biodistribution in ddY mouse large intestine at 4.8 MBq/0.1 mL after 90 mins by gamma counting; format: ADME, organism-based; conditions: in vivo, 1.5 h
[3] = Drug uptake in monkey pons at 185 to 220 MBq, iv after 10 mins by PET analysis; format: ADME, organism-based, Macaca mulatta; conditions: rhesus monkey, in vivo
Kidney = test: Biodistribution in ddY mouse kidney at 4.8 MBq/0.1 mL after 90 mins by gamma counting; format: ADME, organism-based; conditions: in vivo, 1.5 h

CC(C)Nc1cc(-c2csc(N(C)C(=O)c3ccc([14CH3])cc3)n2)ncn1
Drug uptake (Pancreas): 0.03 % ID/g
Drug uptake (Mus musculus [1]): 0.41 % ID/g
Drug uptake (Brain): 2.19 % ID/g
Drug uptake (Mus musculus [2]): 7.02 % ID/g
Drug uptake [3]: Active
Drug uptake (Kidney): 0.11 % ID/g
